Source: BindingDB's records for doi:10.1016/S0960-894X(01)80110-4 (1994)
pEC50: −log10 of the molar value.

Assay: Activity against thromboxane A2 receptor evaluated by aggregation of human platelets

Row | pEC50 | Compound
1 | 7.62 | CCCCCC(O)/C=C/[C@@H]1[C@@H](C/C=C\CCCC(=O)O)[C@@H]2C[C@H]1OC(=O)O2 (stereo partly drawn) [(Z)-7-[(1R,5S,6R,7R)-7-((E)-3-Hydroxy-oct-1-enyl)-3-oxo-2,4-dioxa-bicyclo[3.2.1]oct-6-yl]-hept-5-enoic acid]
2 | 5.51 | CCCCCC(O)/C=C/[C@@H]1[C@@H](C/C=C\CCCC(N)=O)[C@@H]2C[C@H]1OC(=O)O2 (stereo partly drawn) [(Z)-7-[(1R,5S,6R,7R)-7-((E)-3-Hydroxy-oct-1-enyl)-3-oxo-2,4-dioxa-bicyclo[3.2.1]oct-6-yl]-hept-5-enoic acid amide]
